Test results: patent US20040038861A1, “Methods and compositions for normalizing lipid levels in mammalian tissues” (priority 2001, published 2004)
pEC50: −log10 of the molar value.

Experiments:
soleus muscle [1] = assay: Individual free fatty acids by gas chromatography in isolated soleus muscle from normally fed rats; type: cell-based, rat; conditions: for Total free fatty acids / free fatty acid C14:0 as percentage of total resting fatty acid / free fatty acid C15:0 as percentage of total resting fatty acid / free fatty acid C16:0 as percentage of total resting fatty acid / free fatty acid C16:1 (n-7) as percentage of total resting fatty acid / free fatty acid C16:1 (n-9) as percentage of total resting fatty acid / free fatty acid C17:0 as percentage of total resting fatty acid / free fatty acid C18:0 as percentage of total resting fatty acid / free fatty acid C18:1 (n-7) as percentage of total resting fatty acid / free fatty acid C18:1 (n-9) as percentage of total resting fatty acid / free fatty acid C18:2 as percentage of total resting fatty acid / free fatty acid C18:3 as percentage of total resting fatty acid / free fatty acid C20:0 as percentage of total resting fatty acid / free fatty acid C20:4 as percentage of total resting fatty acid / free fatty acid C20:5 as percentage of total resting fatty acid / free fatty acid C22:4 as percentage of total resting fatty acid / free fatty acid C22:6 as percentage of total resting fatty acid: 1 hour; for Total free fatty acids / free fatty acid adrenic C22:4 / free fatty acid arachidic C20:0 / free fatty acid arachidonic C20:4 / free fatty acid cervonic C22:6 / free fatty acid linoleic C18:2 / free fatty acid linolenic C18:3 / free fatty acid margaric C17:0 / free fatty acid myristic C14:0 / free fatty acid oleic C18:1 / free fatty acid palmitic C16:0 / free fatty acid palmitoleic (n-7) C16:1 / free fatty acid palmitoleic (n-9) C16:1 / free fatty acid pentadecanoic C15:0 / free fatty acid stearic C18:0 / free fatty acid timnodonic C20:5 / free fatty acid vaccenic C18:1: GC; for Total free fatty acids: hormone concentrations 100 nM for all; for free fatty acid C14:0 as percentage of total resting fatty acid / free fatty acid C15:0 as percentage of total resting fatty acid / free fatty acid C16:0 as percentage of total resting fatty acid / free fatty acid C16:1 (n-7) as percentage of total resting fatty acid / free fatty acid C16:1 (n-9) as percentage of total resting fatty acid / free fatty acid C17:0 as percentage of total resting fatty acid / free fatty acid C18:0 as percentage of total resting fatty acid / free fatty acid C18:1 (n-7) as percentage of total resting fatty acid / free fatty acid C18:1 (n-9) as percentage of total resting fatty acid / free fatty acid C18:2 as percentage of total resting fatty acid / free fatty acid C18:3 as percentage of total resting fatty acid / free fatty acid C20:0 as percentage of total resting fatty acid / free fatty acid C20:4 as percentage of total resting fatty acid / free fatty acid C20:5 as percentage of total resting fatty acid / free fatty acid C22:4 as percentage of total resting fatty acid / free fatty acid C22:6 as percentage of total resting fatty acid / free fatty acid adrenic C22:4 / free fatty acid arachidic C20:0 / free fatty acid arachidonic C20:4 / free fatty acid cervonic C22:6 / free fatty acid linoleic C18:2 / free fatty acid linolenic C18:3 / free fatty acid margaric C17:0 / free fatty acid myristic C14:0 / free fatty acid oleic C18:1 / free fatty acid palmitic C16:0 / free fatty acid palmitoleic (n-7) C16:1 / free fatty acid palmitoleic (n-9) C16:1 / free fatty acid pentadecanoic C15:0 / free fatty acid stearic C18:0 / free fatty acid timnodonic C20:5 / free fatty acid vaccenic C18:1: normally fed rats; for free fatty acid adrenic C22:4 / free fatty acid arachidic C20:0 / free fatty acid arachidonic C20:4 / free fatty acid cervonic C22:6 / free fatty acid linoleic C18:2 / free fatty acid linolenic C18:3 / free fatty acid margaric C17:0 / free fatty acid myristic C14:0 / free fatty acid oleic C18:1 / free fatty acid palmitic C16:0 / free fatty acid palmitoleic (n-7) C16:1 / free fatty acid palmitoleic (n-9) C16:1 / free fatty acid pentadecanoic C15:0 / free fatty acid stearic C18:0 / free fatty acid timnodonic C20:5 / free fatty acid vaccenic C18:1: hormone 1 hour
Method: Animal models. Normallyfed rats. All protocols were approved by the University of Auckland Animal Ethics Committee. Male Wistar rats, (age=50 d) weighing 200-250 g, were housed in a constant 12 h/12 h-light/dark cycle and received standard rat-chow (Diet 86, NRM, Auckland) and water ad libitum. The standard diet contained 5% fat (w/w), which comprised mainly beef tallow. The triglyceride, total and free fatty acid contents of representative samples of this diet were analyzed, and are shown in Table 3. Rats were anaesthetized by intraperitoneal injection of sodium pentobarbital (45 mg/kg body weight) then sacrificed by cervical dislocation.
Soleus muscle tissue isolation and incuhation.Immersion and incubation media was Krebs-Henseleit buffer (KHB) containing 118.5 mM NaCl, 4.75 mM KCl, 1.18 mM MgSO4.7H2O and KH2PO4, 24.8 mM NaHCO3, 2.54 mM CaCl2 and 10 mM d-glucose. The medium was gassed continuously with 95% O2/5% CO2. […] Soleus muscles of both legs were excised keeping the tissue immersed in KHB; muscles were separated into two equal parts and transferred to the incubation flasks. At the completion of incubation the muscles were snap frozen in liquid nitrogen, and then trimmed of connective tissue and all visible fat. The muscle strips were stored at −80° C. until analysis.
Lipid extraction and chromatographic separation of fatty acids. Total lipids were extracted from muscle strips by a modified version of the method of Bligh and Dyer (Gorski et al., 1988, Mol & Cell Biochem 178:113-118; 1. Bligh et al., 1959, Can J Biochem Physiol 37: 911-917). Muscles were homogenised (Soniprep 150) in 0.4 ml of deionised water. Solvent volumes used herein were varied according to the water content of the muscle (ie muscle weight) as described (Bligh & Dyer, supra). 2 vols of methanol containing 0.005% butylated hydroxy toluene (BHT) and 1 vol chloroform were added to the muscle suspension. Homogenates were vortexed at maximum speed for 2 minutes and centrifuged at 2,500 g for 4 minutes. Supernatants were recovered and pellets re-extracted with 2 vol methanol, 1 vol chloroform and 0.8 vol 0.2 N HCl. Residues were vortexed for 2 min then centrifuged at 3,500 g for 3 min. After centrifugation the combined supernatants were diluted with 2v each of milli Q water and chloroform and the phases separated by centrifugation at 3,500 g for 4 minutes. The lower chloroform phase was recovered, neutralised by dropwise addition of 0.2 N methanolic NH4OH and evaporated down in a stream of N2. The samples were stored at −80° C. until required.
Aminopropyl phase (250 mg) was packed into 16 ml teflon columns with teflon frits placed at the top and bottom of the bonded phase. Columns were placed in a Vac Elut apparatus and washed twice with 2 ml portions of hexane (Prasad et al., 1988, J Chromato 428: 221-228; Kaluzny et al., 1985, J Lipid Res 26: 135-140). The dry lipid samples were taken up in two 0.150 ml portions of chloroform and applied to the column under atmospheric pressure. After adsorption the neutral lipids were eluted with 4 ml of chloroform-2-propanol (2:1, v/v) and the free fatty acids eluted with 4 ml of 2% acetic acid in diethyl ether. The solvent containing the free fatty acids was dried under a stream of N2.
Gas-liquid chromatographic analysis. Dry free fatty acid residues were processed for derivatisation of methyl esters by the boron trifluoride-methanol method (Prasad, supra). 1 ml of boron trifluoride in methanol (BF3) was added to each sample, the sample vials were heated at 70° C. for 5 minutes, shaken vigorously, and baked for a further 10 minutes. Once the samples reached room temperature 0.5 ml milli Q water was added, the sample vials shaken, 0.1 ml heptane was added and the sample shaken again. 0.05 ml of the top heptane layer was removed for GLC analysis. […]

soleus muscle [2] = assay: Total glycogen content in isolated incubated soleus muscle; type: cell-based, rat; conditions: for total glycogen content: 10 nM peptide, 2 h; for pEC50: isolated rat soleus muscle
Method: Soleus muscle preparation. All experiments were performed according to protocols approved by the Institutional Animal Ethics Committee. 5-6 week-old male Wistar rats (160 g) were kept on a 12:12-h light/dark cycle, and fed and watered ad libitum. Animals were anaesthetised with 50 mg/kg Nembutal (pentobarbitone sodium), then sacrificed by cervical dislocation. Soleus muscles were dissected under oxygenated KHB (118 mM NaCl, 4.75 mM KCl, 1.2 mM MgSO4, 24.8 mM NaHCO3, 1.2 mM KH2PO4, 2.54 mM CaCl2, 10 mM glucose, pH 7.4) and teased into halves, then incubated as described below.
Total glycogen content was measured in muscle strips by lyophilization followed by hydrolysis of glycogen to D-glucose with amyloglucosidase (Sigma) 20 U/100 ml in 0.2 M sodium acetate/acetic acid buffer, pH 4.8, and expressed as μmol ‘glucosyl’ units/g dry muscle weight. Free glucose in supernatant solutions was measured with a glucose/lactate analyzer (YSI 2300STAT, Yellow Springs Corporation) using D-glucose oxidase immobilized enzyme chemistry.
Data analysis. One way ANOVA, Dunnett's Multiple Comparisons Test, and unpaired Student's t-tests were used to calculate the statistical significance of differences, as appropriate. Dose-response curves were fitted to a sigmoidal dose-response algorithm, as follows: Y=minimum+(maximum−minimum)/([…] log ^(EC50^−X), for 2-DOG-uptake; and by a four parameter logistic model, Y=minimum+(maximum−minimum)/(1+10 log ^(EC50^−X)Hill-Coefficient) for total glycogen and [^14C]glucose incorporation. Calculations were performed using Prism v2.0 (GraphPad Software, San Diego, Calif.) to derive values for half-maximal effective concentration (EC50). Displacement curves derived for competition of bound radioligand with cold ligand in transfected cells were calculated according to a one site competition fit using Prism v2.0.

[3] = absence of insulin, basal 90.8±3.7
[4] = insulin 23.7 nM, insulin alone 138±4.8

Substance | Total free fatty acids (soleus muscle [1]) [nmol/g wwt] | free fatty acid C14:0 as percentage of total resting fatty acid (soleus muscle [1]) [%] | free fatty acid C15:0 as percentage of total resting fatty acid (soleus muscle [1]) [%] | free fatty acid C16:0 as percentage of total resting fatty acid (soleus muscle [1]) [%] | free fatty acid C16:1 (n-7) as percentage of total resting fatty acid (soleus muscle [1]) [%] | free fatty acid C16:1 (n-9) as percentage of total resting fatty acid (soleus muscle [1]) [%] | free fatty acid C17:0 as percentage of total resting fatty acid (soleus muscle [1]) [%] | free fatty acid C18:0 as percentage of total resting fatty acid (soleus muscle [1]) [%] | free fatty acid C18:1 (n-7) as percentage of total resting fatty acid (soleus muscle [1]) [%] | free fatty acid C18:1 (n-9) as percentage of total resting fatty acid (soleus muscle [1]) [%] | free fatty acid C18:2 as percentage of total resting fatty acid (soleus muscle [1]) [%] | free fatty acid C18:3 as percentage of total resting fatty acid (soleus muscle [1]) [%] | free fatty acid C20:0 as percentage of total resting fatty acid (soleus muscle [1]) [%] | free fatty acid C20:4 as percentage of total resting fatty acid (soleus muscle [1]) [%] | free fatty acid C20:5 as percentage of total resting fatty acid (soleus muscle [1]) [%] | free fatty acid C22:4 as percentage of total resting fatty acid (soleus muscle [1]) [%] | free fatty acid C22:6 as percentage of total resting fatty acid (soleus muscle [1]) [%] | free fatty acid adrenic C22:4 (soleus muscle [1]) [nmol/g wwt] | free fatty acid arachidic C20:0 (soleus muscle [1]) [nmol/g wwt] | free fatty acid arachidonic C20:4 (soleus muscle [1]) [nmol/g wwt] | also measured
Rat amylin | 0.636 ± 0.05 | 3.4 | 15.4 | 2.6 | 15.8 | 7.2 | 10.7 | 2.9 | 1.3 | 1.6 | 1.1 | 3.7 | 4.5 | 1.0 | 1.4 | 9.1 | 3.3 | 0.008 ± 0.003 | 0.008 ± 0.002 | 0.016±0.002 | free fatty acid cervonic C22:6 (soleus muscle [1]): 0.03±0.004 nmol/g wwt; free fatty acid linoleic C18:2 (soleus muscle [1]): 0.058 ± 0.006 nmol/g wwt; free fatty acid linolenic C18:3 (soleus muscle [1]): 0.01 ± 0.002 nmol/g wwt; free fatty acid margaric C17:0 (soleus muscle [1]): 0.013 ± 0.0022 nmol/g wwt; free fatty acid myristic C14:0 (soleus muscle [1]): 0.026 ± 0.0028 nmol/g wwt; free fatty acid oleic C18:1 (soleus muscle [1]): 0.076 ± 0.0082 nmol/g wwt; free fatty acid palmitic C16:0 (soleus muscle [1]): 0.21 ± 0.0188 nmol/g wwt; free fatty acid palmitoleic (n-7) C16:1 (soleus muscle [1]): 0.015 ± 0.0025 nmol/g wwt; free fatty acid palmitoleic (n-9) C16:1 (soleus muscle [1]): 0.008±0.0013 nmol/g wwt; free fatty acid pentadecanoic C15:0 (soleus muscle [1]): 0.013 ± 0.002 nmol/g wwt; free fatty acid stearic C18:0 (soleus muscle [1]): 0.125 ± 0.0058 nmol/g wwt; free fatty acid timnodonic C20:5 (soleus muscle [1]): 0.005 ± 0.0007 nmol/g wwt; free fatty acid vaccenic C18:1 (soleus muscle [1]): 0.015 ± 0.0015 nmol/g wwt; free fatty acid arachidonic C20:4 (soleus muscle [1]; listed as Amylin): 0.016 ± 0.002 nmol/g wwt; free fatty acid cervonic C22:6 (soleus muscle [1]; listed as Amylin): 0.03 ± 0.004 nmol/g wwt; free fatty acid palmitoleic (n-9) C16:1 (soleus muscle [1]; listed as Amylin): 0.008 ± 0.0013 nmol/g wwt; total glycogen content (soleus muscle [2]; [3]): 65.6±9.1 μmol/g dry-wt muscle/h; total glycogen content (soleus muscle [2]; [4]): 86.7 μmol/g dry-wt muscle/h; pEC50 (soleus muscle [2]; absence of insulin): 8.10; pEC50 (soleus muscle [2]; human insulin 23.7 nM): 8.09
rat CGRP-1 | 0.691 ± 0.04 | 3.6 | 12.9 | 2.9 | 21.6 | 7.5 | 10.7 | 3.6 | 1.4 | 1.8 | 1.0 | 2.1 | 3.6 | 1.1 | 1.0 | 8.1 | 2.7 | 0.007 ± 0.002 | 0.007 ± 0.0008 | 0.018±0.002 | free fatty acid cervonic C22:6 (soleus muscle [1]): 0.022±0.002 nmol/g wwt; free fatty acid linoleic C18:2 (soleus muscle [1]): 0.057 ± 0.006 nmol/g wwt; free fatty acid linolenic C18:3 (soleus muscle [1]): 0.005 ± 0.0013 nmol/g wwt; free fatty acid margaric C17:0 (soleus muscle [1]): 0.015 ± 0.0015 nmol/g wwt; free fatty acid myristic C14:0 (soleus muscle [1]): 0.028 ± 0.001 nmol/g wwt; free fatty acid oleic C18:1 (soleus muscle [1]): 0.09 ± 0.0075 nmol/g wwt; free fatty acid palmitic C16:0 (soleus muscle [1]): 0.23 ± 0.01 nmol/g wwt; free fatty acid palmitoleic (n-7) C16:1 (soleus muscle [1]): 0.022 ± 0.002 nmol/g wwt; free fatty acid palmitoleic (n-9) C16:1 (soleus muscle [1]): 0.008±0.0006 nmol/g wwt; free fatty acid pentadecanoic C15:0 (soleus muscle [1]): 0.01 ± 001 nmol/g wwt; free fatty acid stearic C18:0 (soleus muscle [1]): 0.15 ± 0.01 nmol/g wwt; free fatty acid timnodonic C20:5 (soleus muscle [1]): 0.003 ± 0.0005 nmol/g wwt; free fatty acid vaccenic C18:1 (soleus muscle [1]): 0.017 ± 0.0015 nmol/g wwt; total glycogen content (soleus muscle [2]; [3]): 71.4±7.7 μmol/g dry-wt muscle/h; total glycogen content (soleus muscle [2]; [4]): 113±6.9 μmol/g dry-wt muscle/h; pEC50 (soleus muscle [2]; absence of insulin): 8.49; pEC50 (soleus muscle [2]; human insulin 23.7 nM): 8.37
